{
  "source": "patent US20260060982A1",
  "about": "“USE OF BTK INHIBITOR AND SINGLE-DOSE DRUG” (HUBEI BIO-PHARMACEUTICAL INDUSTRIAL TECHNOLOGICAL INSTITUTE …, priority 2023, published 2026)",
  "key": {"[1]": {"test_system": "collagen-induced arthritis in DBA/1 mice", "assay": "Collagen-induced arthritis (CIA) model in mice", "format": "in vivo", "description": "Clinical symptoms of arthritis were induced in mice by injecting collagen emulsion into the tail of mice. The specific steps were as follows:\nDBA/1 mice were randomly divided into 6 groups, with 10 mice in each group except the blank control group (5 mice). […] The day of the first immunization was recorded as day 0, and the subsequent days were marked in sequence. DBA/1 mice were anesthetized with isoflurane and injected subcutaneously with 50 μl of the prepared collagen emulsion (containing 200 μg of CII) at the tail (2 cm to 3 cm from the base of the tail). On day 21, the same volume of collagen emulsion was injected into the tail in the same way.\nOn day 28, when the average clinical score reached 1 to 2, the mice were randomly redivided into 4 treatment groups (10 mice per group) and a blank vehicle control group (10 mice per group) according to body weight and score. […] The administration was performed once daily for 14 days by gavage at 10 mL/kg. After the administration, the clinical score curve of each animal in each group was analyzed to calculate the area under the curve (AUC). The inhibition rate of each administration group relative to the blank vehicle control was calculated based on the average AUC between groups.\nClinical observation: From 7 days before immunization to 21 days after immunization, the basic health status and weight changes of DBA/1 mice were observed daily (recorded twice a week). After day 22, the health status, disease incidence, and weight changes of the mice were observed daily (recorded every two days) until the end of the experiment.\nWhen mice began to develop symptoms of arthritis (clinical symptoms of arthritis appeared), they were scored on a scale from 0 to 4 based on the severity of the lesions (redness, swelling, joint deformation), with a maximum score of 4 for each limb and a maximum score of 16 for each animal. The scoring was performed at least three times a week.\nPathology: On day 42, mice were euthanized. The two hind limbs of the mice were taken, soaked in 10% formalin solution, decalcified with formic acid solution, embedded in paraffin, sectioned, stained with hematoxylin-eosin (HE), and observed under a microscope. The degree of joint damage was evaluated from four aspects: inflammatory cell infiltration, pannus formation, cartilage damage, and bone resorption, and scored on a scale from 0 to 4."}, "[2]": {"test_system": "PG-PS-induced arthritis in Lewis rats", "assay": "PG-PS-induced arthritis model in rats", "format": "in vivo", "text": "Intraperitoneal injection of PG-PS suspension can effectively induce chronic, erosive, and relapsing symptoms similar to human rheumatoid arthritis in rats, and is often used to evaluate the in vivo effectiveness of medicaments in the early discovery of arthritis medicaments. The specific steps were as follows:\nOn day 0, Lewis rats were randomly divided into 6 groups, with 5 rats in the first group and 10 rats in each group from the second group to the sixth group. All rats in the second to sixth groups were intraperitoneally injected with PG-PS (Lee Laboratories, PG-PS 10S, 5.1 mg/ml Rhamnose) to establish the model. The PG-PS injection dose v=15 μg/g×bw (rat weight, in g)/5.1 μg/μL.\nOn day 1, the model rats (the second to sixth groups) were randomly redivided into 5 groups, with 10 rats in each group. The animals in each group were given the corresponding medicament or vehicle by gavage once a day until the 29th day. […] Clinical observations and clinical scoring were performed daily during the administration period. The ankle diameter of each animal after modeling was subtracted from its ankle diameter before modeling to obtain the ankle diameter difference (delta ankle diameter). The area under the curve (AUC) was calculated by analyzing the ankle diameter difference of each animal in each group. The inhibition rate of each administration group relative to the blank vehicle control was calculated by the average AUC between groups.\nPathology: On day 30, the rats were euthanized. The two hind limbs of rats were stained with toluidine blue to evaluate the degree of joint damage in terms of inflammatory cell lesions, pannus formation, cartilage damage, bone resorption, and periosteal new bone formation, and the severity was scored on a scale from 0 to 7."}, "[3]": {"test_system": "IgM-induced calcium signaling in RAMOS cells", "assay": "Antagonism of IgM-induced calcium signaling in RAMOS cells (FLIPR)", "format": "cell-based", "conditions": "Fluo-4D dye", "description": "The specific test steps were as follows:\nA. Ramos cells (ECACC) were seeded in a 384 experimental plate using cell culture medium (RPMI 1640 medium supplemented with 10% fetal bovine serum) at a density of 5×10^6 cells/mL, 20 μL per well.\nC. The cell plate and the compound plate were placed into FLIPR. 10 μL was transferred from the compound plate by the FLIPR instrument and added to the cell plate. The cell plate was removed and incubated in a 37° C. incubator for 1 h.\nD. One hour later, 40 μL of Fluo-4D dye (Life Technologies, formulated as 0.5× with 40 mL of HBSS and HEPES buffer) was added to the cell plate and incubated at 37° C. for 50 min.\nE. 10 μL of IgM at 8×EC80 concentration was added, and the plate was read using FLIPR.\nF. The IC50 results of the compounds were analyzed using EXCEL and Prism statistical software."}, "[4]": {"test_system": "anti-DNP IgE-induced passive cutaneous anaphylaxis in BALB/c mice", "assay": "Passive cutaneous anaphylaxis (PCA) model in mice induced with anti-DNP IgE", "format": "in vivo", "text": "Passive cutaneous anaphylaxis test, also known as PCA reaction, is a local allergic reaction caused by antibodies that bind to the same or different animal tissues. The PCA animal model in the present disclosure was a passive sensitization model in which IgE binds to specific receptors on skin mast cells. When allergens were stimulated, local mast cells released allergic mediators, thereby increasing local vascular permeability. […] The specific steps were as follows:\nThe PCA model in mice was induced using anti-DNP IgE. Specifically, BALB/c mice were divided into 9 groups, namely, a normal control group (no administration, injection, or feeding of any solvent), a model group (no administration, injection, or feeding of any solvent), a prednisone group (10 mg/kg, administered for 3 consecutive days, QD (once a day), prednisone concentration of 1 mg/mL, and an administration volume of 10 mL/kg), a cetirizine group (20 mg/kg, administered for 3 consecutive days, QD, cetirizine concentration of 2 mg/mL, and an administration volume of 10 mL/kg), a low-dose group and a medium-dose group for the test substance LOU-064 (15 mg/kg and 45 mg/kg, administered for 3 consecutive days, BID (twice a day), LOU-064 concentrations of 1.5 mg/mL and 4.5 mg/mL, and an administration volume of 10 mL/kg), and a low-dose group, a medium-dose group, and a high-dose group for compound (I) (15 mg/kg, 45 mg/kg, and 90 mg/kg, administered for 3 consecutive days, BID, compound (I) concentrations of 1.5 mg/mL, 4.5 mg/mL, and 9 mg/mL, and an administration volume of 10 mL/kg), with 9 mice in each group, administered by gavage for a total of 4 days. On day 3 of the administration, anti-DNP IgE (Sigma-Aldrich) was injected into the left ears of 8 groups of mice (no normal control group), and the same volume of PBS was injected into the right ears of 8 groups and the left and right ears of the normal control group to allow it to bind to mast cells. Then, 24 hours after the fourth day of anti-DNP IgE injection, a mixed solution of antigen (DNP-HAS, Sigma) and pigment Evan's Blue (Sigma) (0.25 mL/mouse, i.v.) was injected into the tail vein (the normal control group was injected with the same volume of the mixed solution of antigen and pigment Evan's Blue). The antigen reacted with the antibody attached to the mast cells, causing a local allergic reaction, increased local vascular permeability, and pigment penetration into the tissue. The reaction intensity was determined by measuring the local pigment content 30 minutes later. The dye was extracted from the left and right ears, and the absorbance of Evan's blue was measured at a specific wavelength. […] The efficacy effects of each test substances in the PCA animal model were evaluated."}},
  "data": [
    {"smiles": "C=CC(=O)Nc1cccc(Nc2nc(Nc3ccc(OCCOC)cc3)ncc2F)c1", "note": "[CC-292, reference compound]", "values": [
      {"measurement": "histopathological score compared with the blank vehicle control group", "setting": "[1]; 3 mg/kg", "result": "not significantly different"},
      {"measurement": "inflammation inhibition rate (AUC of clinical score vs blank vehicle control)", "setting": "[1]; 3 mg/kg once daily by gavage for 14 days", "result": 29.1, "unit": "%"},
      {"measurement": "pathology of foot joint bone tissue", "setting": "[1]; 3 mg/kg, day 42", "result": "certain inflammation and more bone tissue damage"},
      {"measurement": "inhibition rate (AUC of ankle diameter difference vs blank vehicle control)", "setting": "[2]; 3 mg/kg once a day by gavage until the 29th day", "result": "−0.1", "unit": "%"},
      {"measurement": "joint tissue lesions (pathology)", "setting": "[2]; 3 mg/kg, day 30", "result": "more severe"},
      {"measurement": "IC50", "setting": "[3]", "result": "171 ± 4.03", "unit": "nM"}
    ]},
    {"smiles": "O=C(O)COCCN1CCN(C(c2ccccc2)c2ccc(Cl)cc2)CC1", "note": "(stereo not shown) [Cetirizine, cetirizine, reference compound]", "values": [
      {"measurement": "Concentration of Evan's Blue, Left ear, Average value", "setting": "[4]; 20 mg/kg QD by gavage", "result": 22.70, "unit": "µg/mL"}
    ]},
    {"smiles": "C=CC(=O)N(C)CCOc1c(N)ncnc1-c1cc(F)cc(NC(=O)c2ccc(C3CC3)cc2F)c1C", "note": "[LOU-064, reference compound]", "values": [
      {"measurement": "Concentration of Evan's Blue, Left ear, Average value", "setting": "[4]; 15 mg/kg BID by gavage", "result": 24.45, "unit": "µg/mL"},
      {"measurement": "Concentration of Evan's Blue, Left ear, Average value", "setting": "[4]; 45 mg/kg BID by gavage", "result": 17.24, "unit": "µg/mL"}
    ]},
    {"smiles": "C[C@]12C=CC(=O)C=C1CC[C@@H]1[C@@H]2C(=O)C[C@@]2(C)[C@H]1CC[C@]2(O)C(=O)CO", "note": "[Prednisone, prednisone, reference compound]", "values": [
      {"measurement": "Concentration of Evan's Blue, Left ear, Average value", "setting": "[4]; 10 mg/kg QD by gavage", "result": 25.36, "unit": "µg/mL"}
    ]}
  ]
}
